Laboratory results as given in the SangsterLogP compilation.

Experiment: method code SF-AS, from DOI: 10.1016/0223-5234(92)90004-k

Going from COc1ccc(-c2cn3cccnc3n2)c(OC)c1 to COc1cc(OS(C)(=O)=O)ccc1-c1cn2cccnc2n1, the logP falls from 1.94 to 1.05.

First: COc1cc(S(C)=O)ccc1-c1nc2ncc(N)cc2[nH]1 (stereo not given)
Second: COc1ccc(-c2nc3ncc(N)cc3[nH]2)c(OC)c1
The logP of the first is lower: 0.33 for the first, 1.62 for the second.

First: COc1cc(SC)ccc1-c1cn2cccnc2n1
Second: COc1cc(C(N)=O)ccc1-c1cn2cccnc2n1
The logP of the first is higher: 2.44 for the first, 0.7 for the second.

Going from COc1cc(C(N)=O)ccc1-c1nc2cnccc2[nH]1 to COc1ccc(-c2nc3ncccc3[nH]2)c(OC)c1, the logP rises from 1.18 to 2.56.

First: COc1ccc(-c2cn3cc(N)cnc3n2)c(OC)c1
Second: COc1cc(NS(C)(=O)=O)ccc1-c1cn2cccnc2n1
The logP of the first is higher: 1.68 for the first, 0.72 for the second.
